What is called EC50 is the midpoint of the concentration-response curve. Broadly, the CC50 is the concentration giving 50% cytotoxicity. As usually defined, the solubility (thermodynamic) is solubility found after equilibrating the solid with the medium.

≈ marks a conversion by molar mass, not a printed value. Read-outs that look alike come from different tables or passages of the source. Bounds are passed on as bounds.

In one data set the test system is HIV-1 (IIIB). The data set can be described thus: Antiviral assay in MT-4 cells. The format is cell-based. The settings on record: HIV-1 IIIB in MT-4 cells, 5 days incubation, Cell Titer Glo, read-out: MT4 EC50. A digest of the protocol:
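Read-out: CellTiter-Glo luminescence after 5 days at 37 °C, reflecting survival of MT-4 cells infected with HIV-1 IIIB (1:250 fresh stock dilution) versus mock-infected. Compounds serially diluted into RPMI with 10% FBS; AZT at 5 μM served as positive control.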
On the technique in general: In ATP-based viability assays light output follows the ATP content of the culture.

Data set [1] in a line: Cytotoxicity assay in MT-4 cells. Particulars: human; uninfected MT-4 cells, 5 days incubation, Cell Titer Glo; read-out: MT4 CC50. The data set is classed as cell-based. A digest of the protocol: (§1)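 Viability read by Cell Titer Glo luminescence after 5 days at 37 °C. MT-4 cells, not infected, in complete RPMI (10% FBS), received compound dilution series. Base cytotoxicity set with […] puromycin.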

A further data set in a line: physchem. The format is physicochemical. The settings on record: ambient temperature, 5 mg/mL dose concentration; for solubility thermodynamic / solubility thermodynamic at 24 h: 23 °C, thermodynamic from solid; for solubility thermodynamic: aqueous buffer; for solubility thermodynamic / Thermodynamic PBS Solubility (mg/mL): PBS; for solubility thermodynamic at 24 h: FaSSIF. The procedure: Approximately 7 mg of each test compound as a dry powder was placed in a vial. Aliquots were weighed out for each assay media at 2 hour and 24 hour time points, to be analyzed. The appropriate buffer (FaSSIF or PBS) was added to each vial such that the final dose concentration of 5 mg/mL was achieved. […] The plate was sealed with a pierceable heat seal and analyzed by HPLC-UV.
A system QC (0.01 mg/mL Caffeine in DMSO) was injected every 12-15 injections. […] Results are reported using data obtained at 280 nm. The resulting peak areas were plotted against the known concentrations from the calibration and the filtrates are quantified with respect to the linear regression using Agilent OpenLab Intelligent Reporting Software. The results are reported electronically in mg/mL.

A further data set concerns MT-4 cells. Description: Cytotoxicity assay in MT-4 cells. The settings on record: uninfected MT-4 cells, 5 days incubation, Cell Titer Glo; read-out: MT4 CC50. The data set is classed as cell-based. A digest of the protocol: as §1
Setting [2] is: Human immunodeficiency virus 1, MT4, 120 h.

As to `COCCOC(=O)OCOc1c2n(cc(C(=O)NCc3ccc(F)cc3F)c1=O)[C@@H]1CN(C2=O)[C@@H](C)CC[C@]12CC(C)=NO2` [Example 10, (((3′S,5S,7′R)-10′-((2,4-difluorobenzyl)carbamoyl)-3,3′-dimethyl-1′,11′-dioxo-1′,4′,5′,11′-tetrahydro-3′H,4H,7′H-spiro[isoxazole-5,6′-[2,7]methanopyrido[1,2-a][1,4]diazonin]-12′-yl)oxy)methyl (2-methoxyethyl) carbonate], the EC50 with HIV-1 (IIIB) (setting [2]) was 6.4 nM. Besides, the CC50 at 5 days in data set [1] was 31700 nM. In the data set “physchem”, this compound gave a solubility (thermodynamic) of 15 µg/mL (≈ 24.2 µM) and a thermodynamic solubility at 24 h of 35 µg/mL (≈ 56.6 µM).

With `COC(=O)OCOc1c2n(cc(C(=O)NCc3ccc(F)cc3F)c1=O)[C@@H]1CN(C2=O)[C@@H](C)CC[C@]12CC(OC)=NO2` [Example 11, (((3′S,5S,7′R)-10′-((2,4-difluorobenzyl)carbamoyl)-3-methoxy-3′-methyl-1′,11′-dioxo-1′,4′,5′,11′-tetrahydro-3′H,4H,7′H-spiro[isoxazole-5,6′-[2,7]methanopyrido[1,2-a][1,4]diazonin]-12-yl)oxy)methyl methyl carbonate], the EC50 in the data set on HIV-1 (IIIB) turned out to be 8.34 nM. The CC50 in the data set on MT-4 cells came out at 36800 nM.

As for `COC(=O)OCOc1c2n(cc(C(=O)NCc3ccc(F)cc3F)c1=O)[C@@H]1CN(C2=O)[C@@H](C)CC[C@]12CC(C)=NO2` [Example 12, (((3′S,5S,7′R)-10′-((2,4-difluorobenzyl)carbamoyl)-3,3′-dimethyl-1′,11′-dioxo-1′,4′,5′,11′-tetrahydro-3′H,4H,7′H-spiro[isoxazole-5,6′-[2,7]methanopyrido[1,2-a][1,4]diazonin]-12′-yl)oxy)methyl methyl carbonate], the EC50 with HIV-1 (IIIB) (setting [2]) stood at 3.81 nM. In addition, the CC50 at 5 days in data set [1] turned out to be 25900 nM. In “physchem”, this compound registered a thermodynamic solubility at 24 h of 30 µg/mL (≈ 52.2 µM).

On to `CCCCCCCCCCCCCCCCCC(=O)Oc1c2n(cc(C(=O)NCc3ccc(F)cc3F)c1=O)[C@@H]1CN(C2=O)[C@@H](C)CC[C@]12CC(C)=NO2` [Example 15, (3′S,5S,7′R)-10′-((2,4-difluorobenzyl)carbamoyl)-3,3′-dimethyl-1′,11′-dioxo-1′,4′,5′,11′-tetrahydro-3′H,4H,7′H-spiro[isoxazole-5,6′-[2,7]methanopyrido[1,2-a][1,4]diazonin]-12′-yl stearate], for which, in the data set on HIV-1 (IIIB) (setting [2]), the EC50 was 6.36 nM. In addition, in data set [1], the CC50 at 5 days was no less than 50000 nM. Further, the “Thermodynamic PBS Solubility (mg/mL)” value in the data set “physchem” is on record as “<LOD”.

With `CC(=O)Oc1c2n(cc(C(=O)NCc3ccc(F)cc3F)c1=O)[C@@H]1CN(C2=O)[C@@H](C)CC[C@]12CC(C)=NO2` [Example 16, (3′S,5S,7′R)-10′-((2,4-difluorobenzyl)carbamoyl)-3,3′-dimethyl-1′,11′-dioxo-1′,4′,5′,11′-tetrahydro-3′H,4H,7′H-spiro[isoxazole-5,6′-[2,7]methanopyrido[1,2-a][1,4]diazonin]-12′-yl acetate], the EC50 in the data set with HIV-1 (IIIB) (setting [2]) was 1.3 nM. In addition, in data set [1], the CC50 at 5 days stood at 11200 nM. In addition, in the data set “physchem”, the solubility (thermodynamic) was determined as 372 µg/mL and the thermodynamic solubility at 24 h stood at 270 µg/mL.

Turning to `CCCCC(=O)Oc1c2n(cc(C(=O)NCc3ccc(F)cc3F)c1=O)[C@@H]1CN(C2=O)[C@@H](C)CC[C@]12CC(C)=NO2` [Example 17, (3′S,5S,7′R)-10′-((2,4-difluorobenzyl)carbamoyl)-3,3′-dimethyl-1′,11′-dioxo-1′,4′,5′,11′-tetrahydro-3′H,4H,7′H-spiro[isoxazole-5,6′-[2,7]methanopyrido[1,2-a][1,4]diazonin]-12′-yl pentanoate], the EC50 in the data set on HIV-1 (IIIB) (setting [2]) amounted to 1.28 nM. Besides, in data set [1], the CC50 at 5 days stood at 10200 nM. Further, the “Thermodynamic PBS Solubility (mg/mL)” value in “physchem” is on record as “<LOD”.

With `CC1=NO[C@@]2(CC[C@H](C)N3C[C@H]2n2cc(C(=O)NCc4ccc(F)cc4F)c(=O)c(OC(=O)C(C)(C)C)c2C3=O)C1` [Example 19, (3′S,5S,7′R)-10′-((2,4-difluorobenzyl)carbamoyl)-3,3′-dimethyl-1′,11′-dioxo-1′,4′,5′,11′-tetrahydro-3′H,4H,7′H-spiro[isoxazole-5,6′-[2,7]methanopyrido[1,2-a][1,4]diazonin]-12′-yl pivalate], the EC50 with HIV-1 (IIIB) (setting [2]) came to 1.53 nM. For the same compound, in data set [1], the 50% cytotoxic concentration (CC50) at 5 days worked out at 12300 nM. Besides, the thermodynamic solubility at 24 h in the data set “physchem” is 83 µg/mL (≈ 145 µM).

For `CC1=NO[C@@]2(CC[C@H](C)N3C[C@H]2n2cc(C(=O)NCc4ccc(F)cc4F)c(=O)c(OC(=O)OC(C)C)c2C3=O)C1` [Example 22, (3′S,5S,7′R)-10′-((2,4-difluorobenzyl)carbamoyl)-3,3′-dimethyl-1′,11′-dioxo-1′,4′,5′,11′-tetrahydro-3′H,4H,7′H-spiro[isoxazole-5,6′-[2,7]methanopyrido[1,2-a][1,4]diazonin]-12′-yl isopropyl carbonate], in the data set on HIV-1 (IIIB) (setting [2]), the EC50 came to 0.992 nM. Further, the CC50 at 5 days in data set [1] turned out to be 12500 nM. In the data set “physchem”, the solubility (thermodynamic) stood at 34 µg/mL (≈ 59.4 µM) and the solubility (thermodynamic) at 24 h is 70 µg/mL (≈ 122 µM).

For `CC1=NO[C@@]2(CC[C@H](C)N3C[C@H]2n2cc(C(=O)NCc4ccc(F)cc4F)c(=O)c(OCOC(=O)OC(C)C)c2C3=O)C1` [Example 24, (((3′S,5S,7′R)-10′-((2,4-difluorobenzyl)carbamoyl)-3,3′-dimethyl-1′,11′-dioxo-1′,4′,5′,11′-tetrahydro-3′H,4H,7′H-spiro[isoxazole-5,6′-[2,7]methanopyrido[1,2-a][1,4]diazonin]-12′-yl)oxy)methyl isopropyl carbonate], in the data set with HIV-1 (IIIB) (setting [2]), the 50% effective concentration (EC50) is 5.17 nM. Also, the half-maximal cytotoxic concentration (CC50) at 5 days in data set [1] was determined as 31700 nM. The compound also registered a thermodynamic solubility at 24 h in “physchem” of 8 µg/mL (≈ 13.3 µM).

The values are drawn from patent US20250122219A1 (priority 2023, published 2025).
